This is an account of results in patent publication US12435060B2, “Acylamino bridged heterocyclic compound, and composition and application thereof” (BEIJING SCITECH-MQ PHARMACEUTICALS LIMITED, priority 2019, dated 2025).

For this assay, the system named is HT29 cells. The assay is described as follows: Inhibition of cell necrosis (CCK8 method), induced programmed necrosis of HT29 cells. Conditions: Homo sapiens, HT-29; rescue from necrosis induced by TNF-α 20 ng/mL, AT-406 1 μM, Z-VAD-FMK 20 μM; 16-20 hours; CCK-8, OD 450 nm. It counts as cell-based. In a few lines: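 HT29 cells in McCOY's 5A with 10% FBS were pre-treated for 30 min with compound (9 fourfold steps, 25000 to 0.38 nM final, 0.25% DMSO). Necrosis was then induced with TNF-α 20 ng/mL, AT-406 1 μM and Z-VAD-FMK 20 μM for 16-20 h. Viability was read by CCK-8 OD450, normalized between uninduced and induced wells, and IC50 was curve-fitted.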
In general terms: Formazan colour is commonly taken as a measure of viable cells.
`CC(C)(O)CCCOc1ccc(F)c(-c2cc(NC(=O)c3nnc(Cc4ccccc4F)[nH]3)ncc2Cl)c1` [Example 320, N-(5-chloro-4-(2-fluoro-5-((4-hydroxy-4-methylpentyl)oxy)phenyl)pyridin-2-yl)-5-(2-fluorobenzyl)-4H-1,2,4-triazole-3-carboxamide]: the IC50 lay in the range of 100 to 1000 nM.
In the case of `COc1cccc(C)c1-c1ccnc(NC(=O)c2nnc(Cc3ccccc3)[nH]2)c1` [Example 92, 5-benzyl-N-(4-(2-methoxy-6-methylphenyl)pyridin-2-yl)-4H-1,2,4-triazole-3-carboxamide], the concentration for half-maximal inhibition (IC50) lay in the range of 100 to 1000 nM.
Under `O=C(Nc1cc(-c2cccc3c2OCC3)ccn1)c1nnc(Cc2ccccc2)[nH]1` [Example 38, 5-benzyl-N-(4-(2,3-dihydrobenzofuran-7-yl)pyridin-2-yl)-4H-1,2,4-triazole-3-carboxamide] stands 1000 to 10000 nM; under `Cc1ccc(OCCC2CCOCC2)cc1-c1cc(NC(=O)c2nnc(CC3CCCCC3)[nH]2)ncn1` [Example 448, 5-(cyclohexylmethyl)-N-(6-(2-methyl-5-(2-(tetrahydro-2H-pyran-4-yl)ethoxy)phenyl)pyrimidin-4-yl)-4H-1,2,4-triazole-3-carboxamide], ≤ 100 nM.
Take `Cc1ccc(OCCN2CCCCC2)cc1-c1cc(NC(=O)c2nnc(Cc3ccccc3F)[nH]2)ncn1` [Example 449, 5-(2-fluorobenzyl)-N-(6-(2-methyl-5-(2-(piperidin-1-yl)ethoxy)phenyl)pyrimidin-4-yl)-4H-1,2,4-triazole-3-carboxamide]: the IC50 lay in the range of 100 to 1000 nM.
Under `CC(C)(O)CCCOc1ccc(Cl)c(-c2cc(NC(=O)c3nnc(CC4CCCCC4)[nH]3)ncc2Cl)c1` [Example 412, N-(5-chloro-4-(2-chloro-5-((4-hydroxy-4-methylpentyl)oxy)phenyl)pyridin-2-yl)-5-(cyclohexylmethyl)-4H-1,2,4-triazole-3-carboxamide] stands 100 to 1000 nM.
Under `Cc1ccc(OCCCCO)cc1-c1ccnc(NC(=O)c2nnc(Cc3ccccc3)[nH]2)c1` [Example 151, 5-benzyl-N-(4-(5-(4-hydroxybutoxy)-2-methylphenyl)pyridin-2-yl)-4H-1,2,4-triazole-3-carboxamide] stands ≤ 100 nM; under `COCCOc1ccc(C(F)(F)F)c(-c2ccnc(NC(=O)c3nnc(CC4CCCC4)[nH]3)c2)c1` [Example 281, 5-(cyclopentylmethyl)-N-(4-(5-(2-methoxyethoxy)-2-(trifluoromethyl)phenyl)pyridin-2-yl)-4H-1,2,4-triazole-3-carboxamide], ≤ 100 nM; under `COCCOCCOc1ccc(C)c(-c2ccnc(NC(=O)c3nnc(Cc4ccccc4)[nH]3)c2)c1` [Example 85, 5-benzyl-N-(4-(5-(2-(2-methoxyethoxy)ethoxy)-2-methylphenyl)pyridin-2-yl)-4H-1,2,4-triazole-3-carboxamide], ≤ 100 nM.
For the compound `COCCCOc1ccc(C)c(-c2ccnc(NC(=O)c3nnc(CC4CCCC4)[nH]3)c2)c1` [Example 144, 5-(cyclopentylmethyl)-N-(4-(5-(3-methoxypropoxy)-2-methylphenyl)pyridin-2-yl)-4H-1,2,4-triazole-3-carboxamide], the IC50 is ≤ 100 nM.
With `Cc1ccc(OCCCC(C)(C)O)cc1-c1ccnc(NC(=O)c2nnc(Cc3ccccc3)[nH]2)c1` [Example 160, 5-benzyl-N-(4-(5-((4-hydroxy-4-methylpentyl)oxy)-2-methylphenyl)pyridin-2-yl)-4H-1,2,4-triazole-3-carboxamide], the 50% inhibitory concentration (IC50) is ≤ 100 nM.
The figure for `CC(C)(O)CCCCOc1ccc(C(F)(F)F)c(-c2ccnc(NC(=O)c3nnc(Cc4ccccc4)[nH]3)c2)c1` [Example 268, 5-benzyl-N-(4-(5-((5-hydroxyl-5-methylhexyl)oxy)-2-(trifluoromethyl)phenyl)pyridin-2-yl)-4H-1,2,4-triazole-3-carboxamide] is ≤ 100 nM; for `Cc1c(OCCO)cccc1-c1ccnc(NC(=O)c2nnc(Cc3ccccc3)[nH]2)c1` [Example 95, 5-benzyl-N-(4-(3-(2-hydroxyethoxy)-2-methylphenyl)pyridin-2-yl)-4H-1,2,4-triazole-3-carboxamide] it is 100 to 1000 nM; for `Cc1ccc(N(C)CCCO)cc1-c1ccnc(NC(=O)c2nnc(Cc3ccccc3)[nH]2)c1` [Example 57, 5-benzyl-N-(4-(5-((3-hydroxypropyl)(methyl)amino)-2-methylphenyl)pyridin-2-yl)-4H-1,2,4-triazole-3-carboxamide] it is 100 to 1000 nM.
The figure for `Cc1ccc(OCC2CCOCC2)cc1-c1cc(NC(=O)c2nnc(CC3CCCC3)[nH]2)ncn1` [Example 443, 5-(cyclopentylmethyl)-N-(6-(2-methyl-5-((tetrahydro-2H-pyran-4-yl)methoxy)phenyl)pyrimidin-4-yl)-4H-1,2,4-triazole-3-carboxamide] is ≤ 100 nM.
Under `CCC(O)(CC)CCCOc1ccc(C)c(-c2ccnc(NC(=O)c3nnc(Cc4ccccc4)[nH]3)c2)c1` [Example 165] stands ≤ 100 nM; under `O=C(Nc1cc(-c2cc(OCCC3CCOCC3)ccc2Cl)ccn1)c1nnc(Cc2ccccc2F)[nH]1` [Example 404, N-(4-(2-chloro-5-(2-(tetrahydro-2H-pyran-4-yl)ethoxy)phenyl)pyridin-2-yl)-5-(2-fluorobenzyl)-4H-1,2,4-triazole-3-carboxamide], ≤ 100 nM.
In the case of `O=C(Nc1cc(-c2cc(OCC3CCOCC3)ccc2F)c(Cl)cn1)c1nnc(CC2CCCCC2)[nH]1` [Example 330, 5-(cyclohexylmethyl)-N-(5-chloro-4-(2-fluoro-5-((tetrahydro-2H-pyran-4-yl)methoxy)phenyl)pyridin-2-yl)-4H-1,2,4-triazole-3-carboxamide], the half-inhibitory concentration (IC50) was in the range of 100 to 1000 nM.
`CC(C)OCCOc1ccc(C(F)(F)F)c(-c2ccnc(NC(=O)c3nnc(CC4CCCCC4)[nH]3)c2)c1` [Example 290, 5-(cyclohexylmethyl)-N-(4-(5-(2-isopropoxyethoxy)-2-(trifluoromethyl)phenyl)pyridin-2-yl)-4H-1,2,4-triazole-3-carboxamide]: the IC50 was ≤ 100 nM.
Under `CC(C)(O)CCCOc1ccc(Cl)c(-c2ccnc(NC(=O)c3nnc(Cc4ccccc4F)[nH]3)c2)c1` [Example 338, N-(4-(2-chloro-5-((4-hydroxy-4-methylpentyl)oxy)phenyl)pyridin-2-yl)-5-(2-fluorobenzyl)-4H-1,2,4-triazole-3-carboxamide] stands ≤ 100 nM; under `CC(C)(O)COc1ccc(Cl)c(-c2ccnc(NC(=O)c3nnc(Cc4ccccc4F)[nH]3)c2)c1` [Example 364, 5-(2-fluorobenzyl)-N-(4-(2-chloro-5-(2-hydroxyl-2-methylpropoxy)phenyl)pyridin-2-yl)-4H-1,2,4-triazole-3-carboxamide], ≤ 100 nM.
With `Cc1ccc(OCCCC(C)(C)O)cc1-c1ccnc(NC(=O)c2nnc(Cc3ccc(F)c(F)c3)[nH]2)c1` [Example 192, 5-(3,4-difluorobenzyl)-N-(4-(5-((4-hydroxy-4-methylpentyl)oxy)-2-methylphenyl)pyridin-2-yl)-4H-1,2,4-triazole-3-carboxamide], the IC50 was ≤ 100 nM.
Under `O=C(Nc1cc(C2CCOCC2)ccn1)c1nnc(Cc2ccccc2)[nH]1` [Example 49, 5-benzyl-N-(4-(tetrahydro-2H-pyran-4-yl)pyridin-2-yl)-4H-1,2,4-triazole-3-carboxamide] stands 1000 to 10000 nM; under `Cc1cnc(NC(=O)c2nnc(CC3CCCCC3)[nH]2)cc1-c1cc(OCCC2CCOCC2)ccc1F` [Example 336, 5-(cyclohexylmethyl)-N-(4-(2-fluoro-5-(2-(tetrahydro-2H-pyran-4-yl)ethoxy)phenyl)-5-methylpyridin-2-yl)-4H-1,2,4-triazole-3-carboxamide], 1000 to 10000 nM; under `CC(C)(O)COc1ccc(C(F)(F)F)c(-c2ccnc(NC(=O)c3nnc(CC4CCCC4)[nH]3)c2)c1` [Example 266, 5-(cyclopentylmethyl)-N-(4-(5-(2-hydroxyl-2-methylpropoxy)-2-(trifluoromethyl)phenyl)pyridin-2-yl)-4H-1,2,4-triazole-3-carboxamide], ≤ 100 nM.
The figure for `O=C(Nc1cc(-c2cc(OCCCCO)ccc2C(F)(F)F)ccn1)c1nnc(Cc2ccccc2)[nH]1` [Example 272, 5-benzyl-N-(4-(5-(4-hydroxybutoxy)-2-(trifluoromethyl)phenyl)pyridin-2-yl)-4H-1,2,4-triazole-3-carboxamide] is ≤ 100 nM; for `CCC(O)(CC)CCCOc1ccc(C)c(-c2cc(NC(=O)c3nnc(CC4CCCCC4)[nH]3)ncc2Cl)c1` [Example 245, N-(5-chloro-4-(5-((4-ethyl-4-hydroxyhexyl)oxy)-2-methylphenyl)pyridin-2-yl)-5-(cyclohexylmethyl)-4H-1,2,4-triazole-3-carboxamide] it is ≤ 100 nM.
For the compound `Cc1ccc(OCCC2CCOCC2)cc1-c1cc(NC(=O)c2nnc(CC3CCCC3)[nH]2)ncn1` [Example 447, 5-(cyclopentylmethyl)-N-(6-(2-methyl-5-(2-(tetrahydro-2H-pyran-4-yl)ethoxy)phenyl)pyrimidin-4-yl)-4H-1,2,4-triazole-3-carboxamide], the IC50 was ≤ 100 nM.
As for `Cc1ccc(OCCC2CCOCC2)cc1-c1cc(NC(=O)c2nnc(Cc3ccccc3F)[nH]2)ncn1` [Example 446, 5-(2-fluorobenzyl)-N-(6-(2-methyl-5-(2-(tetrahydro-2H-pyran-4-yl)ethoxy)phenyl)pyrimidin-4-yl)-4H-1,2,4-triazole-3-carboxamide], the IC50 is ≤ 100 nM.
For `O=C(Nc1cc(-c2cc(OCCCCCO)ccc2Cl)ccn1)c1nnc(Cc2ccccc2F)[nH]1` [Example 376, 5-(2-fluorobenzyl)-N-(4-(2-chloro-5-((5-hydroxypentyl)oxy)phenyl)pyridin-2-yl)-4H-1,2,4-triazole-3-carboxamide], the half-inhibitory concentration (IC50) is ≤ 100 nM.

For orientation: IC50 means the point on the concentration scale where inhibition reaches its midpoint. Low values mean inhibition by little substance, high ones a need for much substance.
